In the NIST ThermoML archive (doi:10.1021/acs.jced.5b00428):
± gives the expanded uncertainty stated by the source.

Tests used:
[1] = mn = molality of the nth substance listed, in mol/kg; conditions: 100 kPa, Liquid; for viscosity: Capillary tube (Ostwald / Ubbelohde) method; for mass density: Vibrating tube method
[2] = 101 kPa, Liquid, Capillary tube (Ostwald / Ubbelohde) method

CCCCn1cc[n+](C)c1.[Br-] [1-butyl-3-methylimidazolium bromide] + O
[1]
Conditions | mass density, m1 = 0.0046 [kg/m3] | mass density, m1 = 0.0141 [kg/m3] | mass density, m1 = 0.0231 [kg/m3] | viscosity, m1 = 0.0046 [mPa·s] | viscosity, m1 = 0.0141 [mPa·s] | viscosity, m1 = 0.0231 [mPa·s]
288.15 K | 999.318 ± 0.12 | 999.804 ± 0.12 | 1000.22 ± 0.12 | 1.14 ± 0.024 | 1.146 ± 0.024 | 1.148 ± 0.024
293.15 K | 998.492 ± 0.12 | 998.891 ± 0.12 | 999.304 ± 0.12 | 1.003 ± 0.021 | 1.008 ± 0.021 | 1.012 ± 0.021
298.15 K | 997.279 ± 0.12 | 997.685 ± 0.12 | 998.078 ± 0.12 | 0.891 ± 0.019 | 0.895 ± 0.019 | 0.897 ± 0.019
303.15 K | 995.876 ± 0.13 | 996.322 ± 0.12 | 996.69 ± 0.12 | 0.8 ± 0.017 | 0.8 ± 0.017 | 0.804 ± 0.017
308.15 K | 994.252 ± 0.13 | 994.678 ± 0.13 | 995.112 ± 0.12 | 0.721 ± 0.015 | 0.722 ± 0.015 | 0.725 ± 0.015
313.15 K | 992.415 ± 0.13 | 992.871 ± 0.12 | 993.178 ± 0.12 | 0.654 ± 0.014 | 0.656 ± 0.014 | 0.657 ± 0.014

O [water]
[2]
Conditions | viscosity [mPa·s]
288.15 K | 1.138 ± 0.024
293.15 K | 1.001 ± 0.021
298.15 K | 0.89 ± 0.019
303.15 K | 0.797 ± 0.017
308.15 K | 0.719 ± 0.015
313.15 K | 0.653 ± 0.014

O [water] + CCCCn1cc[n+](C)c1.[Br-]
[1], m2 = 0
Conditions | viscosity [mPa·s]
288.15 K | 1.138 ± 0.024
293.15 K | 1.001 ± 0.021
298.15 K | 0.89 ± 0.019
303.15 K | 0.797 ± 0.017
308.15 K | 0.719 ± 0.015
313.15 K | 0.653 ± 0.014
